# Experiments:
# [1] = tested on: Streptomyces fradiae ATCC 31664; assay: Antibiotic sensitivity, sensitivity discs on seeded agar plates; type: cell-based; conditions: discs: chloramphenicol, cephaloridine, tetracycline, vancomycin 30 μg, erythromycin 15 μg, lincomycin 2 μg, polymyxin B 300 units, streptomycin 10 μg; further: key: -: resistance (no zones of inhibition); +: sensitivity (zones of inhibition); trace of sensitivity
# Text: (§1) ^a Determined by using sensitivity discs padded onto seededagar
# [2] = tested on: Streptomyces fradiae E2724.1; assay: as above; type: cell-based; conditions: discs: chloramphenicol, cephaloridine, tetracycline, vancomycin 30 μg, erythromycin 15 μg, lincomycin 2 μg, polymyxin B 300 units, streptomycin 10 μg; further: key: -: resistance (no zones of inhibition); +: sensitivity (zones of inhibition); trace of sensitivity
# Text: as §1
# [3] = Solubility; type: physicochemical
# [4] = tested on: Streptococcus pyogenes C203; assay: Standard agar-dilution MIC assay; type: cell-based; conditions: DOMM free base
# Text: (§2) Table 8 summarizes the minimal inhibitory concentrations (MIC), as measured by standard agar-dilution assays, at which DOMM (free base) inhibits certain bacteria.
# [5] = tested on: Streptococcus pneumoniae Park I; assay: Standard agar-dilution MIC assay; type: cell-based; conditions: DOMM free base
# Text: as §2
# [6] = tested on: Pasteurella hemolytica; assay: Standard agar-dilution MIC assay; type: cell-based; conditions: DOMM free base
# Text: as §2
# [7] = tested on: Pasteurella multocida; assay: Standard agar-dilution MIC assay; type: cell-based; conditions: DOMM free base
# Text: as §2
# [8] = tested on: Mycoplasma hyopneumoniae; assay: Standard agar-dilution MIC assay; type: cell-based; conditions: Mesomycoplasma hyopneumoniae, DOMM free base
# Text: as §2
# [9] = tested on: Mycoplasma hyorhinis; assay: Standard agar-dilution MIC assay; type: cell-based; conditions: DOMM free base
# Text: as §2
# [10] = tested on: Streptococcus sp. (Group D) 282; assay: Standard agar-dilution MIC assay; type: cell-based; conditions: DOMM free base
# Text: as §2
# [11] = tested on: Mycoplasma gallisepticum; assay: Standard agar-dilution MIC assay; type: cell-based; conditions: Mycoplasmoides gallisepticum, DOMM free base
# Text: as §2
# [12] = tested on: Streptococcus pyogenes C203; assay: Experimental infection in mice, ED50; type: in vivo; conditions: sc, subcutaneous, two doses, bacterial challenge (X LD50) = 133, read-out: Subcutaneous ED50 (effective dose to protect 50% of the test animals)
# Method: (§3) The DOMM compounds have shown in vivo antimicrobial activity against experimental bacterial infections. When two doses of test compound were administered to mice in experimental infections, the activity observed was measured as an ED50 value [effective dose in mg/kg to protect 50% of the test animals: see Warren Wick, et al., J. Bacteriol. 81, 233-235 (1961)].
# [13] = tested on: Streptococcus pneumoniae Park I; assay: Experimental infection in mice, ED50; type: in vivo; conditions: sc, subcutaneous, two doses, bacterial challenge (X LD50) = 41.2, read-out: Subcutaneous ED50 (effective dose to protect 50% of the test animals)
# Method: as §3
# [14] = tested on: Staphylococcus aureus 3055; assay: Experimental infection in mice, ED50; type: in vivo; conditions: sc, subcutaneous, two doses, bacterial challenge (X LD50) = 139, read-out: Subcutaneous ED50 (effective dose to protect 50% of the test animals)
# Method: as §3
# [15] = Electrometric titration (pKa); type: physicochemical; conditions: 66% aqueous dimethylformamide
# Text: Electrometric titration of DOMM in 66% aqueous dimethylformamide indicates the presence of a titratable group with a pKa value of about 7.14.
# [16] = tested on: pathogenic bacteria, especially gram-positive bacteria and Mycoplasma species; assay: Inhibition of growth of pathogenic organisms (general statement); type: cell-based
# Text: as §2
molecule,measurement,setting,value
O=C(Cc1cccs1)N[C@@H]1C(=O)N2C(C(=O)[O-])=C(C[n+]3ccccc3)CS[C@H]12 [Cephaloridine],Antibiotic sensitivity,[1],+
same,Antibiotic sensitivity,[2],+
O=C(N[C@H](CO)[C@H](O)c1ccc([N+](=O)[O-])cc1)C(Cl)Cl [Chloramphenicol],Antibiotic sensitivity,[1],+
same,Antibiotic sensitivity,[2],+
"CCC1OC(=O)CC(O)C(C)C(OC2OC(C)C(OC3CC(C)(O)C(O)C(C)O3)C(N(C)C)C2O)C(CC=O)CC(C)C(=O)C=CC(C)=CC1COC1OC(C)C(O)C(O)C1O (centres unmarked) [DOMM, 2'""-O-demethylmacrocin]",solubility in most polar organic solvents,"[3]; acetone, methanol, ethanol, chloroform, dimethylformamide and dimethyl sulfoxide",soluble
same,solubility in water,[3]; water,soluble
same,MIC,[4],0.25 µg/mL
same,MIC,[5],0.25 µg/mL
same,MIC,[6],50 µg/mL
same,MIC,[7],12.5 µg/mL
same,MIC,[8],0.78 µg/mL
same,MIC,[9],3.12 µg/mL
same,MIC,[10],4 µg/mL
same,MIC,[11],0.78 µg/mL
same,ED50,[12],1.1 mg/kg
same,ED50,[13],37.5 mg/kg
same,ED50,[14],3.8 mg/kg
same,pKa value,[15],about 7.14
same,growth inhibition / antibacterial activity (in words),[16],especially active against grampositive microorganisms and Mycoplasma species
CCC[C@@H]1C[C@@H](C(=O)N[C@@H]([C@H]2O[C@H](SC)[C@H](O)[C@@H](O)[C@H]2O)[C@@H](C)O)N(C)C1 [Lincomycin],Antibiotic sensitivity,[1],-
same,Antibiotic sensitivity,[2],-
[H]/N=C(/N)N[C@H]1[C@H](O)[C@@H](O)[C@H](O[C@@H]2O[C@@H](C)[C@](O)(C=O)[C@H]2O[C@@H]2O[C@@H](CO)[C@H](O)[C@@H](O)[C@@H]2NC)[C@@H](N/C(N)=N\[H])[C@@H]1O [Streptomycin],Antibiotic sensitivity,[1],+
same,Antibiotic sensitivity,[2],+
CN(C)C1C(=O)C(C(N)=O)=C(O)C2(O)C(=O)C3=C(O)c4c(O)cccc4C(C)(O)C3CC12 (centres unmarked) [Tetracycline],Antibiotic sensitivity,[1],+
same,Antibiotic sensitivity,[2],+
CN[C@H](CC(C)C)C(=O)N[C@H]1C(=O)N[C@@H](CC(N)=O)C(=O)N[C@H]2C(=O)N[C@H]3C(=O)N[C@H](C(=O)N[C@H](C(=O)O)c4cc(O)cc(O)c4-c4cc3ccc4O)[C@H](O)c3ccc(c(Cl)c3)Oc3cc2cc(c3O[C@@H]2O[C@H](CO)[C@@H](O)[C@H](O)[C@H]2O[C@H]2C[C@](C)(N)[C@H](O)[C@H](C)O2)Oc2ccc(cc2Cl)[C@H]1O [Vancomycin],Antibiotic sensitivity,[1],+
same,Antibiotic sensitivity,[2],+
"CCC1OC(=O)CC(O)C(C)C(OC2OC(C)C(OC3CC(C)(O)C(O)C(C)O3)C(N(C)C)C2O)C(CCO)CC(C)C(=O)C=CC(C)=CC1COC1OC(C)C(O)C(O)C1O (centres unmarked) [dihydro-DOMM, 20-dihydro-2'""-O-demethylmacrocin]",growth inhibition / antibacterial activity (in words),[16],especially active against grampositive microorganisms and Mycoplasma species
Polymyxin B,Antibiotic sensitivity,[1],+
